# Source: PMC5799266, “ComX-Induced Exoproteases Degrade ComX in Bacillus subtilis PS-216” (Frontiers in Microbiology, 2018)
# Where no end group is shown, it is not given here.
# Columns and labels:
# [1] = test system: exoproteases in B. subtilis PS-216 floating biofilm spent media; assay: Proteolytic activity of harvested floating biofilm spent media with EDTA or subtilisin added after harvest (casein-gelatin plates); type: biochemical, Bacillus subtilis; settings: EDTA 1 mM added to wt floating biofilm spent medium, 16 h at 37°C
# Description: To prepare casein gelatin agar plates 1% (w/v) casein sodium salt from bovine milk (Sigma–Aldrich, United States) and 1% (w/v) gelatin from porcine skin (Sigma–Aldrich, United States) were thoroughly dissolved in 0.02 M NaOH and the pH was equilibrated to 7 ± 0.2 as described by [Montville (1983)]. […] Finally, 1.5% (w/v) of agar was added to the casein gelatin medium. The casein gelatin medium was autoclaved at 110°C. 40 ml of the medium was poured into Petri dishes with 9 cm diameter. Wells (6 mm diameter) were cut into the casein gelatin agar using an agar punch cutter.
# Proteolytic activity was determined in B. subtilis spent medium at different time points. The spent medium below the biofilm was centrifuged for 5 min at 8000 g to remove remaining planktonic cells and sterilized through filters with 0.2 μm pores. Spent medium was diluted in 10 mM sodium acetate buffer with 5 mM calcium acetate (pH 7.5). If EDTA was added to experimental samples, spent medium was diluted in PBS buffer (10 mM sodium phosphate dibasic, 1 mM potassium phosphate monobasic, 137 mM NaCl, and 2.7 mM KCl pH 7). The diluted spent medium (100 μl) was dispensed into the wells punched into the casein gelatin agar. The plates were incubated for 16 h at 37°C when the proteolytic zones were measured. […]
# [2] = test system: subtilisin; assay: ComX biological activity decay in E. coli ED367 M9 spent medium with subtilisin (biosensor BM1456); type: in vitro ADME; settings: E. coli ED367 M9 spent medium with heterologous ComX, subtilisin 0.1 mg/ml, 24 h at 37°C, vs subtilisin untreated control, three biological replicates
# Description: (§1) The ComX biological activity was quantified in spent media of various B. subtilis strains harvested after 36 and 48 h of static growth, using biosensor strains: B. subtilis BM1456 and BM1400. […] The BM1400 strain only served to determine background fluorescence, since it carries no fluorescent marker. […] The BM1456 biosenor responds to ComX in the spent medium by inducing the PsrfAA-yfp reporter ([Oslizlo et al., 2014]). Since the induction of PsrfAA is proportional to the quantity of ComX ([Ansaldi et al., 2002]) we used this assay to estimate the quantity of biologically active ComX in the spent media of various pellicles.
# Both biosensor strains were grown in 5 ml of CM medium supplemented with 1% (v/v) of filtered spent media of selected strains for 6 h at 37°C with shaking (200 rpm). After 6 h of incubation 200 μl aliquots were dispensed in a sterile 96-well black transparent bottom microtiter plate. The PsrfAA-yfp expression was quantified by YFP (yellow fluorescent protein) fluorescence intensity. YFP was excited at 510 nm and emissions were measured at 530 nm. The gain was set to 100. Each PsrfAA-yfp reading was normalized to OD650. The normalized autofluorescence background of BM1400 grown in the same experimental conditions was subtracted. […]
# ComX biological activity was determined in the spent media immediately after harvest (T0) and after a 24 h (T24) incubation at 37°C. […]
# [3] = test system: B. subtilis PS-216 ΔcomQ floating biofilm; assay: Floating biofilm morphology after addition of ComX; type: cell-based, Bacillus subtilis; settings: ΔcomQ mutant at 24 h, MSgg + 20% (v/v) ED367 M9 spent medium with ComX
# Description: (§2) To harvest pellicle spent media 1% (v/v) of B. subtilis spores were inoculated in 4 ml of MSgg medium ([Branda et al., 2001]), in some cases complemented with 20% (v/v) spent M9 minimal medium and incubated in sterile 12-well microtiter plates in static conditions at 37°C.
# [4] = test system: exoprotease production of B. subtilis PS-216 ΔcomQ floating biofilms; assay: Proteolytic activity in spent media of floating biofilms grown with ComX (casein-gelatin plates); type: cell-based, Bacillus subtilis; settings: ΔcomQ mutant, 24 h floating biofilm in MSgg + 20% (v/v) ED367 M9 spent medium with ComX, 12-well plates, 37°C; casein-gelatin plate zones; three biological replicates
# Description: as §2
# To prepare casein gelatin agar plates 1% (w/v) casein sodium salt from bovine milk (Sigma–Aldrich, United States) and 1% (w/v) gelatin from porcine skin (Sigma–Aldrich, United States) were thoroughly dissolved in 0.02 M NaOH and the pH was equilibrated to 7 ± 0.2 as described by [Montville (1983)]. Wherever, the proteolytic inhibition by ethylenediaminetetraacetic acid (EDTA) was tested, EDTA was added to the casein gelatin medium in 1 mM final concentration. Finally, 1.5% (w/v) of agar was added to the casein gelatin medium. The casein gelatin medium was autoclaved at 110°C. 40 ml of the medium was poured into Petri dishes with 9 cm diameter. Wells (6 mm diameter) were cut into the casein gelatin agar using an agar punch cutter.
# Proteolytic activity was determined in B. subtilis spent medium at different time points. The spent medium below the biofilm was centrifuged for 5 min at 8000 g to remove remaining planktonic cells and sterilized through filters with 0.2 μm pores. […] The plates were incubated for 16 h at 37°C when the proteolytic zones were measured. […]
# [5] = test system: PaprE-gfp expression in B. subtilis PS-216 mutants; assay: PaprE-gfp expression during formation of floating biofilm, complementation with ComX; type: cell-based, Bacillus subtilis
# Description: To measure gene expression in floating biofilms (pellicles) a spore suspension 1% (v/v) was inoculated into the liquid MSgg medium. In some experiments the MSgg medium was supplemented with 20% (v/v) of the spent medium containing ComX, which was heterologously produced by E. coli ED367 ([Ansaldi et al., 2002]). The spent M9 medium of E. coli ED367 that was not induced by IPTG was used as a negative control.
# Briefly, 200 μl aliquots of inoculated MSgg medium, sometimes supplemented with M9 spent medium were dispensed in a sterile 96-well black transparent bottom microtiter plate in four technical replicates. The lid was sealed with micropore tape and the space between wells was filled with sterile distilled water to minimize the effect of medium evaporation. The microtiter plate was incubated in the Cytation 3 imaging reader (BioTek, United States) at 37°C without shaking. Optical density at 650 nm and fluorescence intensity were measured in half hour intervals for up to 60 h. Fluorescence intensity of GFP (green fluorescent protein) was used to monitor PaprE-gfp expression with excitation at 480 nm and emission at 510 nm. The gain was set on 50. In a parallel experimental setup the same strains without the fluorescent marker were always cultured. To calculate the final expression the autofluorescence of unmarked strains was deducted from the fluorescence of the marked strains. Fluorescence intensity was normalized per OD650 of fluorescently labeled strains at each time point.
# [6] = test system: exoproteases in B. subtilis PS-216 floating biofilm spent media; assay: ComX biological activity decay in floating biofilm spent media (biosensor BM1456, PsrfAA-yfp); type: in vitro ADME, Bacillus subtilis; settings: for ComX biological activity decay: T0 vs 24 h at 37°C, three biological replicates
# Description: as §1
# Both biosensor strains were grown in 5 ml of CM medium supplemented with 1% (v/v) of filtered spent media of selected strains for 6 h at 37°C with shaking (200 rpm). After 6 h of incubation 200 μl aliquots were dispensed in a sterile 96-well black transparent bottom microtiter plate. The PsrfAA-yfp expression was quantified by YFP (yellow fluorescent protein) fluorescence intensity. YFP was excited at 510 nm and emissions were measured at 530 nm. The gain was set to 100. Each PsrfAA-yfp reading was normalized to OD650. The normalized autofluorescence background of BM1400 grown in the same experimental conditions was subtracted. Additionally, we subtracted the PsrfAA-yfp expression of cells exposed to ΔcomQ spent medium (lacks ComX), to account for ComX independent YFP expression.
# ComX biological activity was determined in the spent media immediately after harvest (T0) and after a 24 h (T24) incubation at 37°C. We reasoned that if exoproteases in the spent medium degrade ComX the ComX biological activity at T0 will be greater than at T24. To calculate the ComX biological activity decay we used the following equation:
# ComXbiologicalactivitydecay[%]= ComXbiologicalactivity(To)−ComXbiologicalactivity(T24)/ComXbiologicalactivity(To)*100
# The same approach was used to determine ComX biological activity decay in the spent media supplemented with subtilisin (0.1 mg/ml) or metalloprotease inhibitor EDTA (1 mM) after harvesting or to estimate the effect of commercially available subtilisin on ComX heterologously produced in E. coli ED367.
Molecule,effect on proteolytic activity of spent medium [1],"decay of the ComX biological activity, change with subtilisin [2]",floating biofilm morphology [3],complementation of spent media proteolytic activity [4],"complementation of PaprE-gfp expression ([5]; degQ::tet mutant of PS-216, MSgg + 20% (v/v) ED367 M9 spent medium with ComX)","complementation of PaprE-gfp expression ([5]; ΔcomQ degQ::tet double mutant of PS-216, MSgg + 20% (v/v) ED367 M9 spent medium with ComX)","complementation of PaprE-gfp expression ([5]; ΔcomQ mutant of PS-216, floating biofilm in MSgg + 20% (v/v) M9 spent medium of IPTG-induced E. coli ED367 (heterologous ComX), 37°C, control non-induced spent medium, GFP fluorescence per OD650, three biological replicates)","ComX biological activity decay, change with subtilisin ([6]; comP::cat or degQ::tet spent media + subtilisin 0.1 mg/ml added after harvest vs without, 24 h at 37°C, biosensor BM1456)","ComX biological activity decay ([6]; spent media of mutant strains (degQ::tet, comP::cat; low proteolytic activity) harvested at 36 and 48 h, biosensor BM1456)","ComX biological activity decay ([6]; spent media of wt PS-216 floating biofilms harvested at 36 and 48 h (MSgg), biosensor BM1456 PsrfAA-yfp fluorescence)","ComX biological activity decay, change with EDTA ([6]; wt spent medium + EDTA 1 mM added after harvest vs without, 24 h at 37°C, biosensor BM1456)"
"O=C(O)CN(CCN(CC(=O)O)CC(=O)O)CC(=O)O [EDTA, ethylenediaminetetraacetic acid]",decreases,,,,,,,,,,
"ComX: auto-inducing signaling peptide of B. subtilis ComQXPA system, modified by isoprenyl transferase ComQ; native in spent media or heterologously produced by E. coli ED367 (ADPITRQWGD; also: isoprenylated by ComQ, site not given here; UniProt P45453 46-55, looked up)",,increases,restores the ΔcomQ mutant floating biofilm morphology to the wt morphology,complemented,does not complement,does not complement,complementation was partial,increased,low,high,decreases
